Where two headings read alike, the source gives them in different places.
Assays:
Type in all cases: cell-based, human
Farp = experiment: qRT-PCR gene expression, Farp; conditions: MDA-MB-231 cells, RT-qPCR
Description: (§1) Total ribonucleic acid (RNA) upon treatment with γ-mangostin and α-mangostin was collected from cells using Sepasol (Nacalai Tesque, Japan). The reverse transcription of complementary deoxyribonucleic acid (cDNA) was performed using ReverTra Ace qPCR RT Kit (Toyobo, Japan), which included DNAse I to remove genomic DNA. Quantitative real-time reverse-transcription polymerase chain reaction (qRT-PCR) was performed using the Thunderbird SYBR qPCR Mix (Toyobo, Japan) on a Real-Time PCR System Light Cycler 96 (Roche, USA). Rac, Farp, CXCR4 ([28]), and latrophilin-2 (LPHN2) primers were used, and GAPDH was detected as the internal control.

MDA-MB-231 cells [1] = experiment: Cell viability assay (CCK-8); conditions: MDA-MB-231 cells, 24 hours, CCK-8 assay, triplicate ± SD
Description: (§2) The MDA-MB-231 breast cancer cells were cultured in an L-15 medium, enriched with 15% fetal bovine serum (FBS) (Gibco, USA) and 1% penicillin-streptomycin (Gibco, USA), and incubated in CO2-free 37°C incubator.
(§3) The compounds γ-mangostin (#M6824) and α-mangostin (#M3824) were purchased from Sigma-Aldrich (USA). A suspension of cells (20,000 cells/well in 100 μL) was cultured in a 96-well plate. After an initial 24-hour incubation, γ-mangostin or α-mangostin of varying concentrations (1 - 100 μM) was added to the plate, followed by another 24-hour incubation. A solution of Cell Counting Kit-8 (CCK-8) (Dojindo #347-07621, Japan) was added to each well, and the plate was incubated for 2 hours. The absorbance was subsequently read at 450 nm using a microplate reader ([26]). The assay was carried out in triplicate.

[2] = Cell viability assay (CCK-8); conditions: human
Description: as §2, §3

MDA-MB-231 cells [3] = experiment: Migration assay (wound healing); conditions: 10 μM, 24 and 42 hours, mitomycin C pretreatment, P < 0.05
Description: A culture-insert 2 well (cat #ib81176) was placed in the well. Then, 5 × 10^4 cells were seeded on each side of the insert. After 24 hours, the medium was discarded and replaced with the fresh medium containing 0.5% FBS, and the cells were cultured for another 18 hours. The next day, the medium was replaced with 10 µg/mL mitomycin C (Wako #139-18711, Japan) and cultured for 2 hours before treatment with 10 μM γ-mangostin and 10 μM α-mangostin. Right after the treatment, the cells were observed under the microscope at 0 hour. At the indicated times (24 and 42 hours), the cell-free area from three parts (i.e., upper, center, and lower scratch) was measured by analyzing the gap closure rate using ImageJ software ([27]).

MDA-MB-231 cells [4] = experiment: Intracellular ROS level measurement (DCFDA, flow cytometry); conditions: for ROS accumulation: 10 µM
Description: The MDA-MB-231 cells were collected in a buffer with 10% FBS in phosphate-buffered saline (PBS) and transferred in a sterile light-blocking microtube before being stained with 20 µM of 2’,7’-dichlorofluorescein diacetate (DCFDA) (Sigma #D6883, USA) and incubated for 30 minutes. Later, γ-mangostin and α-mangostin were added to the cell suspensions and incubated in a 37 °C incubator (with 5% CO2) before analyzing by a flow cytometer (Calibur) at indicated times (4, 8, 18, and 24 hours). 2’,7’-dichlorofluorescein diacetate reacted with the hydroxyl radicals (·OH) and transformed into fluorescent 2,7-dichlorofluorescein (DCF). The fluorescence intensity of DCF based on 5,000 cells per gate was calculated using the flow cytometer ([29], [30]). In a separate experiment, the cells already stained with DCFDA were treated with 5 mM N-acetyl-L-cysteine (NAC) (Wako #017-05131, Japan) and incubated for an hour before the treatment with γ-mangostin and α-mangostin for the next 24 hours, and the ROS level was subsequently measured. The assay was carried out in triplicate.

CXCR4 = experiment: qRT-PCR gene expression, CXCR4; conditions: MDA-MB-231 cells, RT-qPCR
Description: as §1

LPHN2 = experiment: qRT-PCR gene expression, LPHN2; conditions: MDA-MB-231 cells, RT-qPCR
Description: as §1

[5] = longer incubation up to 24 hours, P < 0.0001

Row | IC50 (MDA-MB-231 cells [1]; Homo sapiens, MDA-MB-231, 24 h) | IC50 (MDA-MB-231 cells [1]) | SMILES | expression of Farp (mRNA, normalized with GAPDH) (Farp) | IC50 (MDA-MB-231 cells [1]; Homo sapiens) | viability at 24 h, 10 µM ([2]; MDA-MB-231 breast cancer cells, MDA-MB-231 cells, 10 µM concentration, read-out: cell viability) | viability at 24 h ([2]; MDA-MB-231 breast cancer cells, MDA-MB-231 cells, concentration below 10 µM, 24 hours) | MDA-MB-231 cell migration (gap closure) (MDA-MB-231 cells [3]) | ROS accumulation (MDA-MB-231 cells [4]; after 4 hours) | ROS accumulation (MDA-MB-231 cells [4]; [5]) | expression of CXCR4 (mRNA, normalized with GAPDH) (CXCR4) | expression of LPHN2 (mRNA, normalized with GAPDH) (LPHN2) | amount of ROS induced by γ-mangostin and α-mangostin (MDA-MB-231 cells [4]; 5 mM NAC for 1 hour before 10 µM mangostin for 24 hours, P < 0.0001) | viability at 24 h, 10 µM [2]
1 | – | – | COc1c(O)cc2oc3cc(O)c(CC=C(C)C)c(O)c3c(=O)c2c1CC=C(C)C [α-mangostin] | did not alter | 20 µM | 80% | 80 to 90% | a similar outcome was observed | decreased | started to rise | did not alter | did not alter | – | –
2 | – | – | CC(=O)N[C@@H](CS)C(=O)O [NAC, N-acetyl-L-cysteine, reference compound] | – | – | – | – | – | – | – | – | – | reduced | –
3 | 25 µM | 18 ± 5 µM | CC(C)=CCc1c(O)cc2oc3cc(O)c(O)c(CC=C(C)C)c3c(=O)c2c1O [γ-mangostin] | downregulated | – | – | – | effectively inhibited MDA-MB-231 cell migration | decreased | started to rise | downregulated | downregulated | – | 80%

Source: article PMC11036650, “Different Modes of Mechanism of Gamma-Mangostin and Alpha-Mangostin to Inhibit Cell Migration of Triple-Negative Breast Cancer Cells Concerning CXCR4 Downregulation and ROS Generation” (Iranian Journal of Pharmaceutical Research : IJPR, 2023)
